For orientation: CC50 means the concentration that lowers cell viability or growth by half. As a reminder, the EC50 is the concentration needed to bring the measured effect to its halfway point.

This note sets out measurements from paper PMC4841536, “Characterization of the Anti-HCV Activities of the New Cyclophilin Inhibitor STG-175” (PLoS ONE, 2016).

Where only a bound is given, the exact number is not on record here.

A short description of series [1]: alamarBlue cytotoxicity (CC50), GT1b replicon cell line. Particulars: human. On the procedure: The anti-HCV activity of STG-175 was conducted using a panel of luciferase reporter replicon cell lines including GT1a, GT1b, GT2a, GT3a and GT4a as we described previously. The GT1a subgenomic renilla luciferase reporter replicon H77 RLucP (7) was supplied by Dr. Delaney. The GT1b subgenomic firefly luciferase reporter replicon pFK-I389/NS3-3’ [29] was supplied by Dr. Bartenschlager. The GT1B subgenomic NS3, NS5A and NS5B mutants were created via homologous recombination using the In-Fusion HD Cloning kit (Clontech) as we described previously. The GT2a genomic luciferase reporter replicon Luc-Neo-JFH-1 was generated as previously. The plasmid pFK-Luc-JFH1 was supplied from Drs. […] The CellTiter-Fluor™ Cell Viability Assay is a non-lytic fluorescence assay, which measures the number of live cells. […] Luciferase activity was determined using the Luciferase Assay System (Promega) in a Berthold luminometer. […] Viable cells continuously convert resazurin to resorufin, increasing the overall fluorescence and color of the media surrounding cells.
Fig 2 Anti-HCV activities of STG-175 among GTs. […] Luciferase activity was determined using the Luciferase Assay System in a Berthold luminometer. […] Data are expressed as mean of relative light units and calculated EC50s are presented. […]

Series [2] deals with NS5Bi-resistant S282T NS5B Con1 GT1b replicon. Put plainly: Electroporated Con1 RNA replication in Huh7.5.1 cells (RT-qPCR), S282T NS5B. Type of series: cell-based. Conditions: Hepatitis C virus, Huh-7.5.1, 192 h, read-out: EC50 S282T NS5B. The source says:
The GT1b subgenomic firefly luciferase reporter replicon pFK-I389/NS3–3 was provided by R. Bartenschlager. The GT1B subgenomic NS3, NS5A and NS5B mutants were created via homologous recombination using the In-Fusion HD Cloning kit (Clontech) as we described previously. […] The in vitro transcription of wild-type and mutant Con1 RNA was accomplished using the T7 MEGAscript kit (Ambion) by following the manufacturer’s instructions. In vitro-transcribed RNAs were introduced into Huh7.5.1 cells by electroporation. Trypsinized cells were washed twice and resuspended in phosphate-buffered saline (PBS) (calcium-free and magnesium-free) at 1x 10^7 cells per ml. Ten micrograms of RNA for each mutant was mixed with 0.4 mL of cells in a 4-mm cuvette, and a Bio-Rad Gene Pulser system was used to deliver a single pulse at 0.27 kV, 100 ohms, and 960 μF. […] RNA transfection efficiency and HCV subgenomic replication were assessed by reverse transcription-quantitative PCR (RT-qPCR) and presented as genome equivalents (GE) per microgram of total RNA as described previously. We measured by RT-qPCR the replication of wild-type, STG-175-, NS5Ai-, NS3i- and NS5Bi-resistant mutants in the presence of increasing concentrations of SGT-175, daclatasvir, telaprevir, boceprevir and sofosbuvir over a period of 8 days.
Fig 5 Cross-resistance analyses. […] Data are expressed as log of GE/μg of total RNA. […]
(In qPCR the cycle at which signal appears reflects the starting amount.)

Regarding `CC=CCC(C)C(O)C1C(=O)NC(CC)C(=O)N(C)C(CSCCCCO)C(=O)N(C)C(CC(C)(C)O)C(=O)NC(C(C)C)C(=O)N(C)C(CC(C)C)C(=O)NC(C)C(=O)NC(C)C(=O)N(C)C(CC(C)C)C(=O)N(C)C(CC(C)C)C(=O)N(C)C(C(C)C)C(=O)N1C` (centres unmarked) [STG-175], in series [1], the CC50 at 72 h is greater than 10000 nM. The 50% effective concentration (EC50) in series [2] is 5.41 nM.
